Data set [1] relates to normal human lung cells (TIG-3).
A further data set addresses T1, human HDAC4 (Homo sapiens, UniProt P56524).
T1 construct: FLAG; made in house; host or cells: 293T cells, transient transfection; anti-FLAG immunoprecipitation and FLAG peptide elution
Kind of data set: HDAC inhibitory activity in vitro (coumarin-labeled acetylated histone peptide), HDAC4. Type of data set: biochemical.

Another data set deals with T2, mouse HDAC6 (Mus musculus, UniProt Q9Z2V5).
T2 construct: HA; made in house; host or cells: 293T cells, transient transfection; anti-HA immunoprecipitation and HA peptide elution
T2 sequence (Q9Z2V5 1-1149): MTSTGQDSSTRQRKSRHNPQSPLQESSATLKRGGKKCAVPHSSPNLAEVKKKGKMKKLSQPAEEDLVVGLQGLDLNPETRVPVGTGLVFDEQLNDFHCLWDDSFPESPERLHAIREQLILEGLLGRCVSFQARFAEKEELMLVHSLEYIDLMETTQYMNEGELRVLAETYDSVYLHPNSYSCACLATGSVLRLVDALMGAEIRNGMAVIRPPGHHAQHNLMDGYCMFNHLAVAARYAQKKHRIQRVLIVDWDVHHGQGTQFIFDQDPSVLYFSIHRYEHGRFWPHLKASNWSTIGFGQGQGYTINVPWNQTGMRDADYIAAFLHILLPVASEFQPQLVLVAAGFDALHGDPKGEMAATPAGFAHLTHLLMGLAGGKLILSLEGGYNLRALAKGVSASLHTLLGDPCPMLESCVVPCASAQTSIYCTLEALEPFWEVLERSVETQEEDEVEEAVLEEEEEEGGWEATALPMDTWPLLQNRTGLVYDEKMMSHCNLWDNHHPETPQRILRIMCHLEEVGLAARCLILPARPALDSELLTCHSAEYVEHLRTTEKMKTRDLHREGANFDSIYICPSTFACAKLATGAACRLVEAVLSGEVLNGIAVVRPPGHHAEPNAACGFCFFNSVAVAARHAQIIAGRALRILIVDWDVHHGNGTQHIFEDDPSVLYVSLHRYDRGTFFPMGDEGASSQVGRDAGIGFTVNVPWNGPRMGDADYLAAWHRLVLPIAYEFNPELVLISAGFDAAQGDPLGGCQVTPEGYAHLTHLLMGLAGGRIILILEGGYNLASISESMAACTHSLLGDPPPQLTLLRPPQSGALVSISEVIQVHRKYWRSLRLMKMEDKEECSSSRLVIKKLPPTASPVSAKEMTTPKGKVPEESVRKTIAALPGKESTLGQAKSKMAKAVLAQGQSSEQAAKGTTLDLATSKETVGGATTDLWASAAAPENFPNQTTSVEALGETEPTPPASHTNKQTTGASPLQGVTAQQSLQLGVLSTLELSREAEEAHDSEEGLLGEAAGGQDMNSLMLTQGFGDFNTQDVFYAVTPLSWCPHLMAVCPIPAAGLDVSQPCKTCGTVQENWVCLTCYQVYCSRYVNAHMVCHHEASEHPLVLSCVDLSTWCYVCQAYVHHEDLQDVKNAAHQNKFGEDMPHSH
Kind of data set: HDAC inhibitory activity in vitro (coumarin-labeled acetylated histone peptide), HDAC6. Type of data set: biochemical.

Data set [2] relates to human wild-type p21 promoter. Kind of data set: p21 promoter-inducing activity (luciferase) in MFLL-9 cells. Particulars: Table 1; MFLL-9 cells, 18 hours; concentration corresponding to 50% of the maximum active value for TSA. It is filed as cell-based. As for the experimental part: The HDAC inhibitory activity in vivo was measured using p21 promoter-inducing activity as an index, as shown below. The MFLL-9 cells employed for the experiments stably maintained fusion genes of human wild-type p21 promoter and luciferase (Dr. B. Vogelstaein). Using phenol red-free DMEM medium comprising 10% FBS, cultivation was carried out in a steam-saturated incubator at 37° C. with 5% carbon dioxide. The MFLL-9 cells were plated at a density of 85,000 cells/well on a 96-well microtiter plate, each in 99 μl of the above-mentioned medium. These were then cultivated for six hours. One μl of test compound solution was added to each well, which was then cultured for another 18 hours.
The intensity of luminescence caused by the product of the enzyme reaction for intracellular luciferase expression was measured using Luc Lite (Packard BioScience Company).
HDAC inhibitory activity in an in vivo system was measured using p21 promoter induction as index. The experimental method followed that of Example 11.

The test system of data set [3] is human uterine cancer cells (HeLa). Briefly: Cytotoxicity test (XTT), HeLa. Type of data set: cell-based. Particulars: 48 hours. A general note: Tetrazolium assays rely on reduction of a dye to a coloured formazan, in cell work by metabolically active cells.
In the next data set the target is T3, human HDAC1 (Homo sapiens, UniProt Q13547).
T3 construct: FLAG; made in house; host or cells: 293T cells, transient transfection; anti-FLAG immunoprecipitation and FLAG peptide elution
T3 sequence (Q13547 whole entry): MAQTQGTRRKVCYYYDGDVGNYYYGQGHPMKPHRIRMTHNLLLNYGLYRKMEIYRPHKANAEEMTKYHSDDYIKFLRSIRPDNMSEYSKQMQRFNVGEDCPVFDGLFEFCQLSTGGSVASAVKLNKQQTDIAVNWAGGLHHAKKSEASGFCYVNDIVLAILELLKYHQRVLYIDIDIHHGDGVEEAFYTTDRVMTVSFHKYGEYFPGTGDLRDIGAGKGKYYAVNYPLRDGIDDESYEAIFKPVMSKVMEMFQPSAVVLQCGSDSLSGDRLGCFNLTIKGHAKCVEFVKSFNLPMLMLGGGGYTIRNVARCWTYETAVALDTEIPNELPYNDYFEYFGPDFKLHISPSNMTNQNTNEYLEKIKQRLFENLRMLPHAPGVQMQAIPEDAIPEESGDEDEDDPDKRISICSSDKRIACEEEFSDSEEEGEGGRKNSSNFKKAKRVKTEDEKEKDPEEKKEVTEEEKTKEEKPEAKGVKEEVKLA
Briefly: HDAC inhibitory activity in vitro (coumarin-labeled acetylated histone peptide), HDAC1. It is filed as biochemical. Particulars: Table 1; 37° C., 30 minutes; read-out: IC50 (μM) HDAC1.

Another data set has as its system tubulin deacetylase. Briefly: Tubulin and histone acetylation level in HeLa cells by western blotting. It is filed as cell-based, human. Particulars: six hours, anti-acetylated lysine antibody, FIG. 4. As to the method:
Tubulin and histone acetylation levels were measured by: (a) reacting a test compound with HeLa cells; and (b) confirming the tubulin and histone acetylation level by western blotting using anti-acetylated lysine antibodies. Specifically, human uterine cancer cells (HeLa) were cultured in a DMEM medium supplemented with 10% FBS at 37° C. in the presence of 5% carbon dioxide in a steam-saturated incubator. Two ml of the cells at a density of 15,000 cells/ml were plated onto a 6-well plate and cultured for 18 hours. Test compound solution was added to each culture and successively cultured for another six hours. The cells were washed with PBS, suspended in a lysis buffer (50 mM Tris-HCl (pH7.5), 120 mM NaCl, 5 mM EDTA, 0.5% Nonidet P-40), and then sonicated. The supernatant was collected by centrifugation, mixed with SDS bufer, and left at 100° C. for five minutes. The resulting sample was subjected to electroplioresis on a 15% SDS gel and transferred to a membrane film. This was treated with primary antibody “AKL5C1” (Japan Energy), and secondary antibody “anti-mouse” (LIFE SCIENCE), and then acetylation bands were detected by ECL (amersham pharmacia biotech) (FIG. 4).
For orientation: In western blotting, separated proteins are transferred to a membrane and probed.

The conditions of data set [4]: amide bond, 12-membered ring, HATU/DIEA, DMF, 25.0 °C.
[5] abbreviates: read-out: IC50 (nM) TIG-3, 48 hours, XTT.
[6] abbreviates: Table 1, 37° C., 30 minutes, read-out: IC50 (μM) HDAC6.

Data on ten compounds can be found in patent publication US7662778B2, “Histone deacetylase inhibitor and process for producing the same” (Riken, priority 2003, dated 2010).

The structures appear in SMILES notation. Where two headings read alike, the source gives them in different places. Where a SMILES comes first, the peptide text is derived from it. [ ]: non-standard residue; d: D form. Phe(4-NH2) = Nc1ccc(C[C@H](N)C(=O)O)cc1

T1 sequence (P56524 whole entry): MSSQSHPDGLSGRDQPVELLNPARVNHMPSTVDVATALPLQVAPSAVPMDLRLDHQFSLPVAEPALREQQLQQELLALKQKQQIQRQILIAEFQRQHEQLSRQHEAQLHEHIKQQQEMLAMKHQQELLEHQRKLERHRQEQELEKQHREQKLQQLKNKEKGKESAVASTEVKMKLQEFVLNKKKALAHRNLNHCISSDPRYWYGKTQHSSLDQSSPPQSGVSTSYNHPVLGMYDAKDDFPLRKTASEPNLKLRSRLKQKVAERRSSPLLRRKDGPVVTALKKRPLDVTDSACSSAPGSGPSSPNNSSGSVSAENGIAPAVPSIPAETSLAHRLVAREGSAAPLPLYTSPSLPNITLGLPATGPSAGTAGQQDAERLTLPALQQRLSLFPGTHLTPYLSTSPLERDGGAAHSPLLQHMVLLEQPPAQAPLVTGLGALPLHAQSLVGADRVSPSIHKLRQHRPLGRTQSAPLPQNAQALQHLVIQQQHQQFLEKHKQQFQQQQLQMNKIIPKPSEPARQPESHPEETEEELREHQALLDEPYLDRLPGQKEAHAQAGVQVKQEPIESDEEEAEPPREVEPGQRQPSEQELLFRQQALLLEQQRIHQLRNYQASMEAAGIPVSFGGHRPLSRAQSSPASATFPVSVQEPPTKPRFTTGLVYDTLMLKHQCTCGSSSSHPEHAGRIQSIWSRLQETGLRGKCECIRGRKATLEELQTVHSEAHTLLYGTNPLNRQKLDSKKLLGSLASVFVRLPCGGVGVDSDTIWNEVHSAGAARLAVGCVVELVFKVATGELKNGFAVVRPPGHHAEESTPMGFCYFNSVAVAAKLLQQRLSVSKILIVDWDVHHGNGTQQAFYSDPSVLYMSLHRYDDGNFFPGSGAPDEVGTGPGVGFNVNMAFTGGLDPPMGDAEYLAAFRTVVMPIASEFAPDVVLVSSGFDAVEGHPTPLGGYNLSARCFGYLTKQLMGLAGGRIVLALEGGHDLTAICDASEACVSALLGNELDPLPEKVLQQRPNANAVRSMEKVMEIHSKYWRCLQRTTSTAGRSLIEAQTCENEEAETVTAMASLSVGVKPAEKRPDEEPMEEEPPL

As a reminder, the IC50 is the concentration needed to halve the response being measured. What is called EC50 is the concentration at which the effect is half-maximal. Lower therefore signals greater potency. Regarding `CC[C@H](C)[C@@H]1NC(=O)[C@@H](Cc2ccc(OC)cc2)NC(=O)[C@H](CCCCCC(=O)C(F)(F)C(F)(F)F)NC(=O)[C@H]2CCCN2C1=O` [Pfek, cyclo(-L-Pfe-D-Tyr(Me)-L-Ile-D-Pro-)], the IC50 is 13400 nM in data set [1] (setting [5]), 1.22 µM against human HDAC4, 5.72 µM against mouse HDAC6 and 616 nM in data set [3]. The compound further showed an EC50 in data set [2] of over 100 µM.
Regarding `CC(/C=C/C(=O)NO)=C\[C@@H](C)C(=O)c1ccc(N(C)C)cc1` [TSA, Trichostatin A, reference compound], the results for the IC50 in data set [1] (setting [5]) and in data set [3] were 151 nM and 12.3 nM, respectively. This compound displayed an EC50 in data set [2] of 0.77 µM.
For the compound `CC[C@H](C)[C@@H]1NC(=O)[C@@H](Cc2ccc(OC)cc2)NC(=O)[C@H](Cc2ccc(N)cc2)NC(=O)[C@H]2CCCN2C1=O` [Aph, cyclo(-L-Aph-D-Tyr(Me)-L-Ile-D-Pro-)] (cyclo(I[dP][Phe(4-NH2)][dY](Me))), the IC50 in data set [1] (48 h) was over 50000 nM; at human HDAC4 (Table 1, 37° C., 30 minutes, read-out: IC50 (μM) HDAC4), over 500 µM; on human HDAC1, over 500 µM; at mouse HDAC6 (setting [6]), over 500 µM; in data set [3] it was over 50000 nM. In addition, the concentration for a half-maximal effect (EC50) in data set [2] is over 100 µM.
As for `CC[C@H](C)[C@@H]1NC(=O)[C@@H](Cc2ccc(OC)cc2)NC(=O)[C@H](CCCCCC(=O)C(F)(F)F)NC(=O)[C@H]2CCCN2C1=O` [Tfk, cyclo(-L-Tfm-D-Tyr(Me)-L-Ile-D-Pro-)], the IC50 in data set [1] (48 h) worked out at 87.1 nM; at mouse HDAC6 (setting [6]) it was 1.44 µM; in data set [3], 8.8 nM. For the same compound, the “tubulin acetylation (tubulin deacetylase inhibition in the cells)” value in the data set on tubulin deacetylase is recorded as “induced high level of tubulin acetylation”. For the same compound, it took 3.09 µM to reach a half-maximal effect in data set [2] (EC50).
As for `CC[C@H](C)[C@@H]1NC(=O)[C@@H](Cc2ccc(OC)cc2)NC(=O)[C@H](CCCCSCC(=O)C(F)(F)F)NC(=O)[C@H]2CCCN2C1=O` [Mtfk, cyclo(-L-Am6(Tfacet)-D-Tyr(Me)-L-Ile-D-Pro-)], the IC50 in data set [1] (48 h) amounted to 468 nM; on mouse HDAC6 (setting [6]) it was 0.95 µM; in data set [3], 52.5 nM. The same compound came in with an EC50 in data set [2] of 6.64 µM.
In turn, `CC[C@H](C)[C@@H]1NC(=O)[C@@H](Cc2ccc(OC)cc2)NC(=O)[C@H](CCCCCN(C=O)OCc2ccccc2)NC(=O)[C@@H]2CCCCN2C1=O` [cyclo(-L-Hly(For, OBzl)-D-Tyr(Me)-L-Ile-L-Pip-)] came in with a ring closure, isolated yield in data set [4] (from H-dTyr(Me)-Ile-Pip-Hly(For,OBzl)-OH?, 0.39 mM) of 28%.
In turn, `CC[C@H](C)[C@@H]1NC(=O)[C@@H](Cc2ccc(OC)cc2)NC(=O)[C@H](CCCCCN(C=O)OCc2ccccc2)NC(=O)[C@H]2CCCCN2C1=O` [cyclo(-L-Hly(For, OBzl)-D-Tyr(Me)-L-Ile-D-Pip-)] displayed a ring closure, isolated yield in data set [4] (from H-dTyr(Me)-Ile-dPip-Hly(For,OBzl)-OH?, 0.39 mM) of 28%.
In data set [4] (from H-dTyr(Me)-Ile-Pro-Hly(For,OBzl)-OH, 0.68 mM), `CC[C@H](C)[C@@H]1NC(=O)[C@@H](Cc2ccc(OC)cc2)NC(=O)[C@H](CCCCCN(C=O)OCc2ccccc2)NC(=O)[C@@H]2CCCN2C1=O` [cyclo(-L-Hly(For, OBzl)-D-Tyr(Me)-L-Ile-L-Pro-)] returned a ring closure, isolated yield of 44%.
In turn, `CC[C@H](C)[C@@H]1NC(=O)[C@@H](Cc2ccc(OC)cc2)NC(=O)[C@H](CCCCN(C=O)OCc2ccccc2)NC(=O)[C@@H]2CCCCN2C1=O` [cyclo(-L-Lys(For, OBzl)-D-Tyr(Me)-L-Ile-L-Pip-)] showed a ring closure, isolated yield in data set [4] (from H-dTyr(Me)-Ile-Pip-Lys(For,OBzl)-OH?, 0.4 mM) of 24%.
With `CC[C@H](C)[C@@H]1NC(=O)[C@@H](Cc2ccc(OC)cc2)NC(=O)[C@H](CCCCCN(C=O)OCc2ccccc2)NC(=O)[C@H]2CCCN2C1=O` [cyclo(-L-Hly(For, OBzl)-D-Tyr(Me)-L-Ile-D-Pro-)], the ring closure, isolated yield in data set [4] (from H-dTyr(Me)-Ile-dPro-Hly(For,OBzl)-OH, 0.96 mM) stood at 66%.
